The text below walks through data of US20250214991A1 (Oncopia Therapeutics, Inc. d/b/a/ SK Life Science Labs, priority 2022, published 2025).

Usually IC50 stands for the concentration needed to halve the response being measured. Higher therefore signals lower potency.

One experiment concerns the target CRBN/DDB1 (Homo sapiens (Human), UniProt Q96SW2). Description: IC50 measurements for binding to CRBN/DDB1 (HTRF). The conditions noted are these: His tagged CRBN+DDB, Cy5-labeled Thalidomide probe, one hour. The method, boiled down:
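Serially diluted compounds compete with a Cy5-labeled thalidomide tracer (60 nM) for His-tagged CRBN-DDB1 (2 nM), detected via anti-6His Tb cryptate (0.4 nM); buffer HEPES pH 7.5 with TCEP, Brij-35, NaCl, BSA. One-hour room-temperature incubation, HTRF signal read, IC50 by four-parameter curve.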
Background: In TR-FRET formats the signal depends on donor and acceptor labels being close together.

A further experiment concerns the target IKZF1 (Homo sapiens (Human), UniProt Q13422+Q96SW2). Put plainly: In vitro IKZF1 HiBit Assay (HEK293T Flp-in-HiBiT-IKZF1 stable cell line). As to conditions: HEK293T Flp-in-HiBiT-IKZF1 stable cell line, 6 hrs incubation; for DC50: read-out: IKZF1 HiBit DC50; for Dmax: HEK-293T, read-out: IKZF1 HiBit Dmax (%). In kind it is cell-based. The procedure, abridged: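 Degradation was measured as loss of luminescence from the HiBiT-IKZF1 tag after 6 h compound treatment, with 0.1% final DMSO, in stable HEK293T Flp-in cells. Values were normalized to DMSO, giving the 50% degradation concentration and the maximal degradation range.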
(In general: With HiBiT, luminescence reflects the tagged protein that the partner subunit can reach.)

Experiment [1] deals with T1, IKZF2 (Homo sapiens (Human), UniProt Q96SW2+Q9UKS7). Put plainly: In vitro IKZF2 FACS Assay in Jurkat cells. It is filed as cell-based. As to conditions: 24 hrs; for DC50: half maximal degradation concentration; for Dmax: maximal degradation percentage. The protocol:
In vitro IKZF2 FACS Assay
DC50, A: <1 nM; B: 1-10 nM; C: 10-100 nM; D: 100-1000 nM; E: >1000 nM. Dmax, A: >80%; B: 60-80%; C: 40-60%; D: 20-40%; E: <20%.

Experiment [2] concerns the target T1, IKZF2. Description: In vitro IKZF2 HiBit Assay (HEK293T Flp-in-HiBiT cells). In kind it is cell-based. As to conditions: HEK293T Flp-in-HiBiT cells, 6 hrs incubation; for DC50: read-out: IKZF2 HiBit DC50; for Dmax: HEK-293T, read-out: IKZF2 HiBit Dmax (%). The procedure, abridged:
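Remaining tagged Helios was read as lytic HiBiT/LgBiT luminescence normalized to DMSO, yielding binned DC50 and Dmax values. Treatment ran 6 h, with compounds at 11 three-fold doses diluted from 1 mM and 0.1% final DMSO. The cells were HEK293T Flp-in with CRISPR knock-in of HiBiT at the IKZF2 N-terminus.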

Sequence of IKZF1 (Q13422 whole entry): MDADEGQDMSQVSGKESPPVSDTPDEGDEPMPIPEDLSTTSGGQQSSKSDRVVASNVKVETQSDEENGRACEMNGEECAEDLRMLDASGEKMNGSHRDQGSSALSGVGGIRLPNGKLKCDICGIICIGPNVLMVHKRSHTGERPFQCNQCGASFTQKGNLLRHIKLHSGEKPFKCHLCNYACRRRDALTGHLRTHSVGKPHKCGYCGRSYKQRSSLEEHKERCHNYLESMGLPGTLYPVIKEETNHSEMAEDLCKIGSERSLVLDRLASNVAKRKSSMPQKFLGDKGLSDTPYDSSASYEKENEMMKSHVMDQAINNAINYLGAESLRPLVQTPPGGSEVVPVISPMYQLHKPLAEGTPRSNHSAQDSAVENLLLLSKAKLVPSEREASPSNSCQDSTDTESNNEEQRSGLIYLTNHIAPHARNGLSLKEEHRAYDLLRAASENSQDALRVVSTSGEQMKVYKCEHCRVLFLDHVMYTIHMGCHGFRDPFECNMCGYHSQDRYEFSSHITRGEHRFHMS
Sequence of IKZF1 (Q96SW2 whole entry): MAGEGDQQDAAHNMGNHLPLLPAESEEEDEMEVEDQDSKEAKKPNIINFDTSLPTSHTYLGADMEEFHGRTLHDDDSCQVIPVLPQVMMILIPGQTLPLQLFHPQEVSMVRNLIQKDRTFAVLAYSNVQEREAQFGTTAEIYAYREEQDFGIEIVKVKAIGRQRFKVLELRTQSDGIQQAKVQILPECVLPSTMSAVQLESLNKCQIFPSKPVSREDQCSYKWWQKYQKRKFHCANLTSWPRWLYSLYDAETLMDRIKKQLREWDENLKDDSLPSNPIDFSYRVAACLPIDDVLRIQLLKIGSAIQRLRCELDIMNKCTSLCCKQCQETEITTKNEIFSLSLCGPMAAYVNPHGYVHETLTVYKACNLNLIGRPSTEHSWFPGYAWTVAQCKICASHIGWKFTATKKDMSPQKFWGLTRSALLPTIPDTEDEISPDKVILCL
Sequence of IKZF1 (Q16531 2-1140 partner): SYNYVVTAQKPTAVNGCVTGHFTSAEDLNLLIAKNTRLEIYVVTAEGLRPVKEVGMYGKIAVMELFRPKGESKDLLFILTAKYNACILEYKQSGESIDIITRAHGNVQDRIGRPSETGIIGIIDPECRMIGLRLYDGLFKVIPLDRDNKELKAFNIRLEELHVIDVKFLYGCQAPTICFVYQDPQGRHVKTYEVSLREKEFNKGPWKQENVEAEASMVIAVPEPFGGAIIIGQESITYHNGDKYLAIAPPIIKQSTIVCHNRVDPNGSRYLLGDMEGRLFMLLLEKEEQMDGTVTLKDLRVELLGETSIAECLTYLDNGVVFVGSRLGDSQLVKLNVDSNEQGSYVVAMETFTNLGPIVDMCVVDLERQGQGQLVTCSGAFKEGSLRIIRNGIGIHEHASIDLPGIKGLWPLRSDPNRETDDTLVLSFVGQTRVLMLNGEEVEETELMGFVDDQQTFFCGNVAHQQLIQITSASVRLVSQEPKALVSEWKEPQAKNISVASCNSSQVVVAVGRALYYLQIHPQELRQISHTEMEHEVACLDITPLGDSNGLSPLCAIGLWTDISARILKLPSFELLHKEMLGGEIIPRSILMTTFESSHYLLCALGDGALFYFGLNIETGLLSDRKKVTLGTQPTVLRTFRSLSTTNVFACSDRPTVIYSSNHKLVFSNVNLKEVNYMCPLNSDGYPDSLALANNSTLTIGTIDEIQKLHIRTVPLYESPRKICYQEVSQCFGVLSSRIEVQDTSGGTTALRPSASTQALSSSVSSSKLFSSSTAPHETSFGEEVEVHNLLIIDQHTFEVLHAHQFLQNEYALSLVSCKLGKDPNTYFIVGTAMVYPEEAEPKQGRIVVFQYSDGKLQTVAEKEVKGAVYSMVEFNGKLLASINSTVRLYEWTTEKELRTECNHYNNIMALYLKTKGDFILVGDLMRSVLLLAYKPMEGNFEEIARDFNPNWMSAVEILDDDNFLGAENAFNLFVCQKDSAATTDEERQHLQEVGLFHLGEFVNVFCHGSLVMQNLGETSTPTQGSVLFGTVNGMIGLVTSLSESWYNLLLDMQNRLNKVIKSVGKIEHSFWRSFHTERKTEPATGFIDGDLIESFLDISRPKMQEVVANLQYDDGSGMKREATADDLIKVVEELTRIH
T1 sequence (Q9UKS7 whole entry): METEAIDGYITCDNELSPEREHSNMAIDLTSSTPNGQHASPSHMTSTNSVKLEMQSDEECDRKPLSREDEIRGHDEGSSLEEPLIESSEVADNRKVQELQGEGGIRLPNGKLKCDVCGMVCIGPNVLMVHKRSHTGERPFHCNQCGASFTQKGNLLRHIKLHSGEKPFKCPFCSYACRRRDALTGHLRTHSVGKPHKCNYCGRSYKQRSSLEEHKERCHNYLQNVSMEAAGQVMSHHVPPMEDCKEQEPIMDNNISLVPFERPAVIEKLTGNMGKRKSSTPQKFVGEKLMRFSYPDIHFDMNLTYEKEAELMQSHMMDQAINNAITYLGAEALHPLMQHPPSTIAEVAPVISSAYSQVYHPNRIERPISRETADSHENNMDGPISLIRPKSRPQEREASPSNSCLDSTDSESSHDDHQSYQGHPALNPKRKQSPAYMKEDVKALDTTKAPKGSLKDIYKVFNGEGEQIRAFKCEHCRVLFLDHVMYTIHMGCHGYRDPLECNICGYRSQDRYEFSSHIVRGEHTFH
T1 sequence (Q96SW2 whole entry): as the sequence (Q96SW2 whole entry) above
T1 sequence (Q16531 2-1140 partner): as the sequence (Q16531 2-1140 partner) above
Sequence of CRBN/DDB1 (Q96SW2 whole entry, species assumed): as the sequence (Q96SW2 whole entry) above
Sequence of CRBN/DDB1 (Q16531 whole entry partner, species assumed): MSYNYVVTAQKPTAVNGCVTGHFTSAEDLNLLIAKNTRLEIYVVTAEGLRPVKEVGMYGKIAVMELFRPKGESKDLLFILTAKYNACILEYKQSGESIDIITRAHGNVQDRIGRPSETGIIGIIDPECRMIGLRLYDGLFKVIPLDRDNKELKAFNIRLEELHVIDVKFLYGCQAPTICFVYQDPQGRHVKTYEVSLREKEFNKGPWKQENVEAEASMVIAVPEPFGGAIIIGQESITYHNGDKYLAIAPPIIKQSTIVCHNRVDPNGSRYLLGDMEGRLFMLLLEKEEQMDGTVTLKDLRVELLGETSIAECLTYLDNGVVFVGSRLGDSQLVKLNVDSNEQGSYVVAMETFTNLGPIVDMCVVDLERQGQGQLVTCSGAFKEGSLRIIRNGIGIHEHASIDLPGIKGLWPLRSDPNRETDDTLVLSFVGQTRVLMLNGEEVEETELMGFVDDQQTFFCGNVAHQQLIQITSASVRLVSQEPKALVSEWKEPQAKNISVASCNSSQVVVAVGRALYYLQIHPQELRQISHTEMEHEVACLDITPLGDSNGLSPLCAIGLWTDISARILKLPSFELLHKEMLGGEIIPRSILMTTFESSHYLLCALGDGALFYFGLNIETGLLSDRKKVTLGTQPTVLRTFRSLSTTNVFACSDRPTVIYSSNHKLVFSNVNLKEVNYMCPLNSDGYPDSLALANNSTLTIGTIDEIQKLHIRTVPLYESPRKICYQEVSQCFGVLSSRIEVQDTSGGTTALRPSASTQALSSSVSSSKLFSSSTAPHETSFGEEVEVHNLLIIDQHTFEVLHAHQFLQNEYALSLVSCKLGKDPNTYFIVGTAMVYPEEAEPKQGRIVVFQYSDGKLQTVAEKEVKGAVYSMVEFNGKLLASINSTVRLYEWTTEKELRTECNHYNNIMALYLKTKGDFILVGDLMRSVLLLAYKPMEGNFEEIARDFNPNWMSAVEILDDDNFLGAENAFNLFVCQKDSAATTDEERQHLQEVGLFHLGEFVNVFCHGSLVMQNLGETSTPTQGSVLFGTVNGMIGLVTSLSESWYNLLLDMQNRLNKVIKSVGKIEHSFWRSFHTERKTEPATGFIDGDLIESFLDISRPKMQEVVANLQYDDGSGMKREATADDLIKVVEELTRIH

`CC(C)Nc1n[nH]c2c(CN3CCCC3)cc(-c3ccc4c(c3Cl)CN(C3CCC(=O)NC3=O)C4=O)nc12` (centres unmarked) [Example 227, 3-(4-chloro-5-(3-(isopropylamino)-7-(pyrrolidin-1-ylmethyl)-1H-pyrazolo[4,3-b]pyridin-5-yl)-1-oxoisoindolin-2-yl) piperidine-2,6-dione]: the IC50 at CRBN/DDB1 lay within 500 to 1000 nM. Besides, the DC50 at IKZF1 is > 10000 nM; at IKZF2 [1], 10 to 100 nM; on IKZF2 [2], 1 to 10 nM. Further, the Dmax on IKZF1 was < 20%; on IKZF2 [1], > 80%; at IKZF2 [2] it was 60 to 80%.
Molecule `O=C1CCC(N2Cc3cc(-c4cc(CN5CCCC5)cc5cncn45)ccc3C2=O)C(=O)N1` (centres unmarked) [Example 1, 3-(1-oxo-5-(7-(pyrrolidin-1-ylmethyl)imidazo[1,5-a]pyridin-5-yl)isoindolin-2-yl) piperidine-2,6-dione] yielded an IC50 at CRBN/DDB1 of 100 to 500 nM. Further, the DC50 at IKZF1 was > 10000 nM; at IKZF2 [1] it was 10 to 100 nM; at IKZF2 [2] it was 10 to 100 nM. The figures for the Dmax at IKZF1, on IKZF2 [1] and at IKZF2 [2] were < 20%, 60 to 80% and 60 to 80%, respectively.
Take `C[C@@H](c1ccccc1)N(C)Cc1cc(-c2ccc3c(c2)CN(C2CCC(=O)NC2=O)C3=O)n2cncc2c1` (single isomer, unassigned) [Example 15, 3-(5-(7-((methyl ((S*)-1-phenylethyl)amino)methyl)imidazo[1,5-a]pyridin-5-yl)-1-oxoisoindolin-2-yl) piperidine-2,6-dione]: the IC50 on CRBN/DDB1 lay within 1000 to 5000 nM. Also, on IKZF2 [1], the DC50 fell in the range of 10 to 100 nM and the Dmax lay in the range of 20 to 40%.
`CC(NCc1cc(-c2ccc3c(c2)CN(C2CCC(=O)NC2=O)C3=O)n2cncc2c1)c1ccccc1Cl` (centres unmarked) [Example 23, 3-(5-(7-(((1-(2-chlorophenyl)ethyl)amino)methyl)imidazo[1,5-a]pyridin-5-yl)-1-oxoisoindolin-2-yl) piperidine-2,6-dione] showed an IC50 on CRBN/DDB1 of 1000 to 5000 nM. At IKZF2 [1], this molecule returned a DC50 of 10 to 100 nM and a Dmax of 20 to 40%.
Taken in the same sequence, the figures for `O=C1CCC(N2Cc3cc(-c4cc(CN5CCC5)cc5cncn45)ccc3C2=O)C(=O)N1` (centres unmarked) [Example 2, 3-(5-(7-(azetidin-1-ylmethyl)imidazo[1,5-a]pyridin-5-yl)-1-oxoisoindolin-2-yl) piperidine-2,6-dione] were 100 to 500 nM, 100 to 1000 nM and 40 to 60%.
`COc1c(-c2cc(CN3CCCC3)cc3cncn23)ccc2c1CN(C1CCC(=O)NC1=O)C2=O` (centres unmarked) [Example 31, 3-(4-methoxy-1-oxo-5-(7-(pyrrolidin-1-ylmethyl)imidazo[1,5-a]pyridin-5-yl)isoindolin-2-yl) piperidine-2,6-dione]: at CRBN/DDB1, the IC50 is 100 to 500 nM. Further, on IKZF2 [1], the DC50 is > 1000 nM and the Dmax was < 20%.
`Cc1ccc(CCNCc2cc(-c3ccc4c(c3)CN(C3CCC(=O)NC3=O)C4=O)n3cncc3c2)cc1Cl` (centres unmarked) [Example 22]: the IC50 at CRBN/DDB1 lay in the range of 1000 to 5000 nM. At IKZF2 [1], the DC50 is > 1000 nM and the Dmax is 20 to 40%.
As to `O=C1CCC(N2Cc3cc(-c4ncc5ccc(CN6CCCC6)cn45)ccc3C2=O)C(=O)N1` (centres unmarked) [Example 53, 3-(1-oxo-5-(6-(pyrrolidin-1-ylmethyl)imidazo[1,5-a]pyridin-3-yl)isoindolin-2-yl) piperidine-2,6-dione], at CRBN/DDB1, the half-inhibitory concentration (IC50) is 5000 to 10000 nM. Also, at IKZF2 [1], the DC50 is > 1000 nM and the Dmax lay within 20 to 40%.
In turn, `O=C1CCC(N2Cc3cc(-c4cc(CN5CC6CC6C5)cc5cncn45)ccc3C2=O)C(=O)N1` (centres unmarked) [Example 7, 3-(5-(7-((3-azabicyclo[3.1.0]hexan-3-yl)methyl)imidazo[1,5-a]pyridin-5-yl)-1-oxoisoindolin-2-yl) piperidine-2,6-dione] had an IC50 at CRBN/DDB1 of 500 to 1000 nM. At IKZF2 [1], this molecule came in with a DC50 of 10 to 100 nM and a Dmax of 40 to 60%.
Taken in the same sequence, the figures for `O=C1CCC(N2Cc3cc(-c4cc(CNCc5ccccc5)cc5cncn45)ccc3C2=O)C(=O)N1` (centres unmarked) [Example 13, 3-(5-(7-((benzylamino)methyl)imidazo[1,5-a]pyridin-5-yl)-1-oxoisoindolin-2-yl) piperidine-2,6-dione] were 100 to 500 nM, 10 to 100 nM and 20 to 40%.
Take `CCN(CC)Cc1cc(-c2ccc3c(c2)CN(C2CCC(=O)NC2=O)C3=O)n2cncc2c1` (centres unmarked) [Example 12, 3-(5-(7-((diethylamino)methyl)imidazo[1,5-a]pyridin-5-yl)-1-oxoisoindolin-2-yl) piperidine-2,6-dione]: the IC50 on CRBN/DDB1 was in the range of 100 to 500 nM. On IKZF2 [1], this molecule showed a DC50 of 100 to 1000 nM and a Dmax of 40 to 60%.
Taken in the same sequence, the figures for `O=C1CCC(N2Cc3c(ccc(-c4cc(CN5CCCC5)cc5cncn45)c3F)C2=O)C(=O)N1` (centres unmarked) [Example 27, 3-(4-fluoro-1-oxo-5-(7-(pyrrolidin-1-ylmethyl)imidazo[1,5-a]pyridin-5-yl)isoindolin-2-yl) piperidine-2,6-dione] were 500 to 1000 nM, 10 to 100 nM and 40 to 60%.
As to `CC(NCc1cc(-c2ccc3c(c2)CN(C2CCC(=O)NC2=O)C3=O)n2cncc2c1)c1cccc(Cl)c1` (centres unmarked) [Example 20, 3-(5-(7-(((1-(3-chlorophenyl)ethyl)amino)methyl)imidazo[1,5-a]pyridin-5-yl)-1-oxoisoindolin-2-yl) piperidine-2,6-dione], the IC50 at CRBN/DDB1 fell in the range of 1000 to 5000 nM. Moreover, on IKZF2 [1], the DC50 fell in the range of 10 to 100 nM and the Dmax was 20 to 40%.
With `O=C1CCC(N2Cc3cc(-c4cc(CNCc5cccc6ccccc56)cc5cncn45)ccc3C2=O)C(=O)N1` (centres unmarked) [Example 24, 3-(5-(7-(((naphthalen-1-ylmethyl)amino)methyl)imidazo[1,5-a]pyridin-5-yl)-1-oxoisoindolin-2-yl) piperidine-2,6-dione], the IC50 at CRBN/DDB1 fell in the range of 1000 to 5000 nM. At IKZF2 [1], this molecule registered a DC50 of 10 to 100 nM and a Dmax of 20 to 40%.
On the same counts, the results for `Cn1ccc2cccc(CNCc3cc(-c4ccc5c(c4)CN(C4CCC(=O)NC4=O)C5=O)n4cncc4c3)c21` (centres unmarked) [Example 25] are 100 to 500 nM, > 1000 nM and < 20%.
Taken in the same sequence, the figures for `C[C@H](c1ccccc1)N(C)Cc1cc(-c2ccc3c(c2)CN(C2CCC(=O)NC2=O)C3=O)n2cncc2c1` (single isomer, unassigned) [Example 17, 3-(5-(7-((methyl ((R*)-1-phenylethyl)amino)methyl)imidazo[1,5-a]pyridin-5-yl)-1-oxoisoindolin-2-yl) piperidine-2,6-dione] were 1000 to 5000 nM, 10 to 100 nM and 20 to 40%.
`O=C1CCC(N2Cc3cc(-c4cc(CN5CCC6(CCC6)CC5)cc5cncn45)ccc3C2=O)C(=O)N1` (centres unmarked) [Example 9, 3-(5-(7-((7-azaspiro[3.5]nonan-7-yl)methyl)imidazo[1,5-a]pyridin-5-yl)-1-oxoisoindolin-2-yl) piperidine-2,6-dione] gave an IC50 on CRBN/DDB1 of 500 to 1000 nM. At IKZF2 [1], this molecule gave a DC50 of 10 to 100 nM and a Dmax of 40 to 60%.
Taken in the same sequence, the figures for `CC1CCCN(Cc2cc(-c3ccc4c(c3)CN(C3CCC(=O)NC3=O)C4=O)n3cncc3c2)C1` (centres unmarked) [Example 5, 3-(5-(7-((3-methylpiperidin-1-yl)methyl)imidazo[1,5-a]pyridin-5-yl)-1-oxoisoindolin-2-yl) piperidine-2,6-dione] were 1000 to 5000 nM, 10 to 100 nM and 40 to 60%.
In turn, `C[C@@H](NCc1cc(-c2ccc3c(c2)CN(C2CCC(=O)NC2=O)C3=O)n2cncc2c1)c1ccccc1` (single isomer, unassigned) [Example 16, 3-(1-oxo-5-(7-((((R*)-1-phenylethyl)amino)methyl)imidazo[1,5-a]pyridin-5-yl)isoindolin-2-yl) piperidine-2,6-dione] came in with an IC50 at CRBN/DDB1 of 500 to 1000 nM. On IKZF2 [1], the DC50 lay in the range of 10 to 100 nM and the Dmax lay in the range of 40 to 60%.
`O=C1CCC(N2Cc3cc(-c4cc(CN5CC6COCC(C6)C5)cc5cncn45)ccc3C2=O)C(=O)N1` (centres unmarked) [Example 11] had a half-inhibitory concentration (IC50) at CRBN/DDB1 of 500 to 1000 nM. At IKZF2 [1], this molecule had a DC50 of 100 to 1000 nM and a Dmax of 40 to 60%.
On the same counts, the results for `C[C@H](NCc1cc(-c2ccc3c(c2)CN(C2CCC(=O)NC2=O)C3=O)n2cncc2c1)c1ccccc1` (single isomer, unassigned) [Example 14, 3-(1-oxo-5-(7-((((S*)-1-phenylethyl)amino)methyl)imidazo[1,5-a]pyridin-5-yl)isoindolin-2-yl) piperidine-2,6-dione] are 100 to 500 nM, 10 to 100 nM and 40 to 60%.
